Test results reported in US8703961B2, “Thiazole derivatives for the treatment of diseases such as cancer” (Merck Patent GmbH, priority 2009, dated 2014).

Legend:
Test in all cases: filter binding kinase assay
Type in all cases: biochemical
[1] = molecular target: T1, MAPK9 (Homo sapiens, UniProt P45984); settings: derived from % inhibition at 1 μM
T1 construct: purchased
Method in brief: (§1)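 Kinase activity is measured at room temperature by filter binding, with incorporated radiolabel counted after acid termination. A 5-minute preincubation of compound, enzyme and substrate precedes addition of ATP from a kinase-dependent stock (5, 20 or 50 […]).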

[2] = molecular target: T2, IGF1R (Homo sapiens, UniProt P08069); settings: derived from % inhibition at 1 μM
T2 construct: purchased
Method in brief: as §1

[3] = molecular target: T3, MAPK10 (Homo sapiens, UniProt P53779); settings: derived from % inhibition at 1 μM
T3 construct: purchased
Method in brief: as §1

[4] = molecular target: T4, FGFR1 (Homo sapiens, UniProt P11362); settings: derived from % inhibition at 1 μM
T4 construct: purchased
Method in brief: as §1

[5] = molecular target: T5, RIPK2 (Homo sapiens, UniProt O43353); settings: derived from % inhibition at 1 μM
T5 construct: purchased
Method in brief: as §1

[6] = molecular target: T6, MARK4 (Homo sapiens, UniProt Q96L34); settings: derived from % inhibition at 1 μM
T6 construct: purchased
T6 sequence (Q96L34 1-752): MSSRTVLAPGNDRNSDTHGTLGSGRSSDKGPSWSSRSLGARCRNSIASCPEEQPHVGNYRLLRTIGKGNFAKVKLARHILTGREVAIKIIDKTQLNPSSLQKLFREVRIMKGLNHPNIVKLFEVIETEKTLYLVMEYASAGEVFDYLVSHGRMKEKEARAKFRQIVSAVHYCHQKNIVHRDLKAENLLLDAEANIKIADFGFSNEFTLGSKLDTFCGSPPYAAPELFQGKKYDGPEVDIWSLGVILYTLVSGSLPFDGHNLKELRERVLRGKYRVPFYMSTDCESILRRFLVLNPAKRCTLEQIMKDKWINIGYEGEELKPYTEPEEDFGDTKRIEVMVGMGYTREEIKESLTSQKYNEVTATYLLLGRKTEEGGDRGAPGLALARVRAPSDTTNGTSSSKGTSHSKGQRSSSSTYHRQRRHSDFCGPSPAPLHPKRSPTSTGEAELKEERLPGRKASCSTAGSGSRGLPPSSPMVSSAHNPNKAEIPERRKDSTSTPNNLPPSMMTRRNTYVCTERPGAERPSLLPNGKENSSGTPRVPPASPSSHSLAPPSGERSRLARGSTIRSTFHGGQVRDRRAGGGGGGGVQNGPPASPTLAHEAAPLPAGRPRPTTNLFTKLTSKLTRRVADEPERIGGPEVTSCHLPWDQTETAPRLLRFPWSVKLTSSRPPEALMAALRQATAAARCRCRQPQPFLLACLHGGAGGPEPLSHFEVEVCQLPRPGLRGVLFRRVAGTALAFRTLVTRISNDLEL
Method in brief: as §1

[7] = molecular target: T7, MKNK1 (Homo sapiens, UniProt Q9BUB5); settings: derived from % inhibition at 1 μM
T7 construct: purchased
Method in brief: as §1

[8] = molecular target: T8, TTK (Homo sapiens, UniProt P33981); settings: derived from % inhibition at 1 μM
T8 construct: purchased
T8 sequence (P33981 1-857): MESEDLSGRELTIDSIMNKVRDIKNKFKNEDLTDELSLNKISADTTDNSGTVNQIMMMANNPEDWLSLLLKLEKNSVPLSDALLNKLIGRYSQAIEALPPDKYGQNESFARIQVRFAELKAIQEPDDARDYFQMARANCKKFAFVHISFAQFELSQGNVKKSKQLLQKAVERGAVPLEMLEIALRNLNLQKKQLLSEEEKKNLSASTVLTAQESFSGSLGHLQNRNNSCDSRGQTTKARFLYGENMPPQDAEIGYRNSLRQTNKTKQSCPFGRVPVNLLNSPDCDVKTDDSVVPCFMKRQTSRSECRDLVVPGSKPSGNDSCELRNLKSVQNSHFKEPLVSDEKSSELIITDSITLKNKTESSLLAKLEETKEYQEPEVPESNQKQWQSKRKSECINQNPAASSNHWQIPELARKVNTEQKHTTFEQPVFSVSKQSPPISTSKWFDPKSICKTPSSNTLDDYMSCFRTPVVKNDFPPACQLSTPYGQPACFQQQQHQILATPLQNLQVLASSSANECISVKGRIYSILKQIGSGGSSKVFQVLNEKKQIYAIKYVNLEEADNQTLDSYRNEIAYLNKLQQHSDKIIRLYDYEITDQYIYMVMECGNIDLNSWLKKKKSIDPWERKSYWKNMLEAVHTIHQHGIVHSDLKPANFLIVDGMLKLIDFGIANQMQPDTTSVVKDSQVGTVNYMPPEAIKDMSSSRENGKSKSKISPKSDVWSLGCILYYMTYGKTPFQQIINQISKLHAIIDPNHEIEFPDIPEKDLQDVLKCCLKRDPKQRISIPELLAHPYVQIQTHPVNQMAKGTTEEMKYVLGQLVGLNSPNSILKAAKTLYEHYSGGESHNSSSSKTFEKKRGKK
Method in brief: as §1

[9] = molecular target: T9, MINK1 (Homo sapiens, UniProt Q8N4C8); settings: derived from % inhibition at 1 μM
T9 construct: purchased
Method in brief: as §1

[10] = molecular target: T10, MARK3 (Homo sapiens, UniProt P27448); settings: for IC50: derived from % inhibition at 1 μM
T10 construct: purchased
Method in brief: as §1

T5 sequence (O43353 whole entry, species assumed): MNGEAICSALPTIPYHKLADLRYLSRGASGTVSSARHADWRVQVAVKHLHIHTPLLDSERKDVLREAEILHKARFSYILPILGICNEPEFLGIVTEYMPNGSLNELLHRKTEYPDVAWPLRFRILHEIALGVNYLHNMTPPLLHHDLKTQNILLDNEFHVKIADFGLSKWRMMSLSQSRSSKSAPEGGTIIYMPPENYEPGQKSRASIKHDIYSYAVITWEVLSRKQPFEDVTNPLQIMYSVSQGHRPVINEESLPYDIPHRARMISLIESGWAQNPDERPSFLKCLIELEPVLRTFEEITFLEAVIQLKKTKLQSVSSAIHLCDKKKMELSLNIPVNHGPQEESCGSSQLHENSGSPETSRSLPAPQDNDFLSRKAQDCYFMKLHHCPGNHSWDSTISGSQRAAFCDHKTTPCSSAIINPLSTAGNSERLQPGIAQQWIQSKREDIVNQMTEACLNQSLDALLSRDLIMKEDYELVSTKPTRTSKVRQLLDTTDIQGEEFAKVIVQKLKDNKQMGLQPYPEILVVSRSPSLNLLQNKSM
T3 sequence (P53779 whole entry, species assumed): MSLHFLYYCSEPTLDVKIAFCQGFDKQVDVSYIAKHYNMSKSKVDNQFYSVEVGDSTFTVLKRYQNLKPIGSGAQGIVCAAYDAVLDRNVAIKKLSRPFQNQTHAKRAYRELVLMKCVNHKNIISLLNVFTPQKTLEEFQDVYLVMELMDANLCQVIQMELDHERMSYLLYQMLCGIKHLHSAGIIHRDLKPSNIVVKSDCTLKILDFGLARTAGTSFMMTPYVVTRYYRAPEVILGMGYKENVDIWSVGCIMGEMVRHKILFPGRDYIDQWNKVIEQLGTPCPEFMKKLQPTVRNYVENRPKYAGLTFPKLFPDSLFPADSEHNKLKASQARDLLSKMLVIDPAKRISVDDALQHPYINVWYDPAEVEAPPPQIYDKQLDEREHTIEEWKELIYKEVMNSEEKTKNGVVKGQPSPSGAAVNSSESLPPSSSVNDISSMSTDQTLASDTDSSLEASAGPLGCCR
T9 sequence (Q8N4C8 whole entry, species assumed): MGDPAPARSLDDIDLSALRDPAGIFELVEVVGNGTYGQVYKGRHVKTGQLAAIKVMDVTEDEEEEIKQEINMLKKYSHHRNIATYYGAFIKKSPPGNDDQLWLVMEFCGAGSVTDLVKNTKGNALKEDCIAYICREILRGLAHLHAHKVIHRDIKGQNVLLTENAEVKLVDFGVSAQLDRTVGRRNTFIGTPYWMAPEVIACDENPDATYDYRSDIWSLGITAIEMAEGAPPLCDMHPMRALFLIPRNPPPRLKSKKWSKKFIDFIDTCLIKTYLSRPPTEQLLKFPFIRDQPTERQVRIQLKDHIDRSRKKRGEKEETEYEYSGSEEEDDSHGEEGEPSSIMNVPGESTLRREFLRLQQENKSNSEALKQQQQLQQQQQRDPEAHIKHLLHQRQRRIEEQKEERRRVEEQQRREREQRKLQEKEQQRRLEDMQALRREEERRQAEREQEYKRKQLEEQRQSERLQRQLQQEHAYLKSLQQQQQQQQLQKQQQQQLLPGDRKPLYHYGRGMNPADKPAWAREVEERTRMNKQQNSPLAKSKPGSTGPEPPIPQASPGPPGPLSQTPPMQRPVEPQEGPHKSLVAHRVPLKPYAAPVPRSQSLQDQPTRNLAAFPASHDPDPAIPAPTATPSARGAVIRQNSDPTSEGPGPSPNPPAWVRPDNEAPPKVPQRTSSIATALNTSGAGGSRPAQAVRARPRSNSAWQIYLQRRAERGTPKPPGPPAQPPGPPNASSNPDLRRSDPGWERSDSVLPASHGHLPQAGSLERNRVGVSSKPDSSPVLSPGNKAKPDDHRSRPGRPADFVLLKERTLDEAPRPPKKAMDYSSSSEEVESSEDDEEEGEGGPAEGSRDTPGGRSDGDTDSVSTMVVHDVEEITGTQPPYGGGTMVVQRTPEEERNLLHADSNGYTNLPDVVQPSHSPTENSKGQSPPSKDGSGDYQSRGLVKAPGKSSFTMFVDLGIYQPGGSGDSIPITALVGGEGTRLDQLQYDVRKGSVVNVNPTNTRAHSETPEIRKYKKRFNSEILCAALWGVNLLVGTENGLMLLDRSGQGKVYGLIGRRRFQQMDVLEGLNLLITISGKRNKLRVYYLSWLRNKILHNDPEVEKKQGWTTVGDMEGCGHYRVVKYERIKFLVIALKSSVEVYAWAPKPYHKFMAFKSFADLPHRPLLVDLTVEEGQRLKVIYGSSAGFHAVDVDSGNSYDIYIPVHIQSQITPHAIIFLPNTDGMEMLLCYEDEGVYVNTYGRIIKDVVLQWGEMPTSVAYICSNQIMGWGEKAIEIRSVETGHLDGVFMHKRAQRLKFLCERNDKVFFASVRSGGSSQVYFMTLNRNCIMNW
T4 sequence (P11362 22-822, species assumed): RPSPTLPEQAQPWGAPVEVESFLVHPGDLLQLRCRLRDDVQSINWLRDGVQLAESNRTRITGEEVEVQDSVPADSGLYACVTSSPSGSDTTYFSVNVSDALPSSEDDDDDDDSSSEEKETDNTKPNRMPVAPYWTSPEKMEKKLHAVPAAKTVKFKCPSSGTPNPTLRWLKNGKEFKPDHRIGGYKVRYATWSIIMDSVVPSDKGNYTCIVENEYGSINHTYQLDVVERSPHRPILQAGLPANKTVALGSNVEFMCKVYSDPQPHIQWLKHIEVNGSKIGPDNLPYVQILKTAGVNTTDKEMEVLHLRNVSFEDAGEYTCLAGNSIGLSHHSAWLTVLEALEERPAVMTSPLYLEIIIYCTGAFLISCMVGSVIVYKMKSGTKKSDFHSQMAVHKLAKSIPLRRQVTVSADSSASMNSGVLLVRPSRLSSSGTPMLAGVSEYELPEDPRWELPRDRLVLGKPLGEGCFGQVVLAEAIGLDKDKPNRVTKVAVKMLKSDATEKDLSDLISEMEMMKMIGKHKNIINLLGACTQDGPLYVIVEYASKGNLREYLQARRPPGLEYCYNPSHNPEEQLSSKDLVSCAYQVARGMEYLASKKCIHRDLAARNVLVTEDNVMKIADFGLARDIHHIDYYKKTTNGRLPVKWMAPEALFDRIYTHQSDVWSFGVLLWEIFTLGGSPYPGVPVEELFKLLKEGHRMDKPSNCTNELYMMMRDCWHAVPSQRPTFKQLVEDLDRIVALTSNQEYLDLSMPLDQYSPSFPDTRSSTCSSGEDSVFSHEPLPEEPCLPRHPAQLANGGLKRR
T7 sequence (Q9BUB5 whole entry, species assumed): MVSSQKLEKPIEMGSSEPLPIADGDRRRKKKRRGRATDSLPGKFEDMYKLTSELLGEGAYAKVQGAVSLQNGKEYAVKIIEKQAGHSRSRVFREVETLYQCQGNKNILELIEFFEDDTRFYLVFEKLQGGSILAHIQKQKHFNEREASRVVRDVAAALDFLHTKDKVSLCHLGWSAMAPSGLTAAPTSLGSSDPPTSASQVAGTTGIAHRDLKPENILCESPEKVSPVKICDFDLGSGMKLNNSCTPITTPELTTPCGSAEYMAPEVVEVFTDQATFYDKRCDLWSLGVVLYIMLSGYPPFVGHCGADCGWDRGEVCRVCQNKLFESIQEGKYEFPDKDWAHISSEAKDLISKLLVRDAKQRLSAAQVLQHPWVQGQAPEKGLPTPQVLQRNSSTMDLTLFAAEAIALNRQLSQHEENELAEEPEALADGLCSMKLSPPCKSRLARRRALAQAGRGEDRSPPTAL
T1 sequence (P45984 whole entry, species assumed): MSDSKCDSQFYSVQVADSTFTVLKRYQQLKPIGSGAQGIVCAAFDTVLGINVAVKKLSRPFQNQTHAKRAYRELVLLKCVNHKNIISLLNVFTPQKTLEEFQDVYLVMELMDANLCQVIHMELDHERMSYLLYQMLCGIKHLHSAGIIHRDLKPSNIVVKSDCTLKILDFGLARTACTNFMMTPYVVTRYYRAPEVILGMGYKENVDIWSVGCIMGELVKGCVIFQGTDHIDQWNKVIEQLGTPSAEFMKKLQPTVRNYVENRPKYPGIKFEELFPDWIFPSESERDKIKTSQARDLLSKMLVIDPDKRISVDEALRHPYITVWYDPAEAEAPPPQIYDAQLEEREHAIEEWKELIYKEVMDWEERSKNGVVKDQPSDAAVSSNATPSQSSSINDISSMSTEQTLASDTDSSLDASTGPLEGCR
T10 sequence (P27448 whole entry, species assumed): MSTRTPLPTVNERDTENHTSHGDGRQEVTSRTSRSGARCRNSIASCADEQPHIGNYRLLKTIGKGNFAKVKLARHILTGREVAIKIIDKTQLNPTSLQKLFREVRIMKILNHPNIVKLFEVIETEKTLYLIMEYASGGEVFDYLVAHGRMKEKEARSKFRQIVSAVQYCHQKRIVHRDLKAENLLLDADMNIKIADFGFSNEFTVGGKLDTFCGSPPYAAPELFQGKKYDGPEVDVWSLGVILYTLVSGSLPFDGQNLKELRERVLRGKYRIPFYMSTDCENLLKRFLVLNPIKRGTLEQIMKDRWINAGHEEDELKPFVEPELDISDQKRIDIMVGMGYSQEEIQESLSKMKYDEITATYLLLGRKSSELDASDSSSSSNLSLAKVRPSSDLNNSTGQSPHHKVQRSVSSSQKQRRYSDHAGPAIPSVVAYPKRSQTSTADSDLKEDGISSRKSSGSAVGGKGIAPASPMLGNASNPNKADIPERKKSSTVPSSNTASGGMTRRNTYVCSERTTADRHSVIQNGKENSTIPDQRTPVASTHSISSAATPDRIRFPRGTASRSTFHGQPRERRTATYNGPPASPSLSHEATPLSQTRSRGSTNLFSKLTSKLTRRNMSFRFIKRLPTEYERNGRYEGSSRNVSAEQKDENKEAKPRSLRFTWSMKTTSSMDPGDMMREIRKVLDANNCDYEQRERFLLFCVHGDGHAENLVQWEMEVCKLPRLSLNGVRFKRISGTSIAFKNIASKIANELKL

## c1ccc(Cc2c[nH]c3ncsc23)cc1 [Compound A7, 6-benzyl-4H-pyrrolo[2,3-d]thiazole]
[1]
  IC50: 10 to 100 µM
[2]
  IC50: 10 to 100 µM
[3]
  IC50: > 1 µM
[4]
  IC50: 1 to 10 µM
[5]
  IC50: 10 to 100 µM
[6]
  IC50: > 1 µM
[7]
  IC50: > 1 µM
[8]
  IC50: 10 to 100 µM
[9]
  IC50: 1 to 10 µM
[10]
  IC50: 1 to 10 µM

## Nc1ncsc1C#Cc1cnc2[nH]ccc2c1 [Compound A22, 5-(1H-pyrrolo[2,3-b]pyridin-5-ylethynyl)thiazol-4-ylamine]
[1]
  IC50: > 1 µM
[2]
  IC50: 1 to 10 µM
[3]
  IC50: > 1 µM
[4]
  IC50: 1 to 10 µM
[5]
  IC50: 1 to 10 µM
[6]
  IC50: 10 to 100 µM
[7]
  IC50: 10 to 100 µM
[8]
  IC50: 10 to 100 µM
[9]
  IC50: 1 to 10 µM
[10]
  IC50: 0.01 to 1 µM
[10]; read-out: residual kinase activity MARK3
  remaining activity at 1 µM: 15%

## CC(C)(C)OC(=O)Nc1nc(-c2ccncc2)sc1C#CCN1CCOCC1 [Compound A25, tert-butyl[5-(3-morpholin-4-ylprop-1-ynyl)-2-pyridin-4-ylthiazol-4-yl]-carbamate]
[1]
  IC50: > 1 µM
[2]
  IC50: > 1 µM
[3]
  IC50: > 1 µM
[4]
  IC50: > 1 µM
[5]
  IC50: > 1 µM
[6]
  IC50: 10 to 100 µM
[7]
  IC50: > 1 µM
[8]
  IC50: 10 to 100 µM
[9]
  IC50: 10 to 100 µM
[10]
  IC50: > 1 µM

## CC(C)(C)OC(=O)Nc1ncsc1C#CCN1C(=O)c2ccccc2C1=O [Compound A26, tert-butyl{5-[3-(1,3-dioxo-1,3-dihydroisoindol-2-yl)prop-1-ynyl]-thiazol-4-yl}carbamate]
[1]
  IC50: > 1 µM
[2]
  IC50: > 1 µM
[3]
  IC50: > 1 µM
[4]
  IC50: 1 to 10 µM
[5]
  IC50: 10 to 100 µM
[6]
  IC50: > 1 µM
[7]
  IC50: > 1 µM
[8]
  IC50: 10 to 100 µM
[9]
  IC50: 10 to 100 µM
[10]
  IC50: 1 to 10 µM

## Nc1ncsc1C#Cc1cccc(O)c1 [Compound A27, 3-(4-aminothiazol-5-ylethynyl)phenol]
[1]
  IC50: 1 to 10 µM
[2]
  IC50: > 1 µM
[3]
  IC50: 1 to 10 µM
[4]
  IC50: > 1 µM
[5]
  IC50: 1 to 10 µM
[6]
  IC50: 1 to 10 µM
[7]
  IC50: 10 to 100 µM
[8]
  IC50: 10 to 100 µM
[9]
  IC50: 1 to 10 µM
[10]
  IC50: 10 to 100 µM
